Measurements as given in article PMC4685510, “A Cell Biologist’s Field Guide to Aurora Kinase Inhibitors” (Frontiers in Oncology, 2015).
Where two headings read alike, the source gives them in different places.

Columns and labels:
Experiment in all cases: biochemical
Assay type in all cases: biochemical
[1] = target: 363 human kinases (including Aurora A/B/C) (Homo sapiens, UniProt Q16539); conditions: P38a/MAPK14; for remaining activity at 0.1 µM: 100 nM; for remaining activity at 0.1 µM / remaining activity at 0.5 µM: read-out: % Enzyme Activity (relative to DMSO controls)
363 human kinases (including Aurora A/B/C) (Homo sapiens, UniProt Q16539), sequence (Q16539 whole entry): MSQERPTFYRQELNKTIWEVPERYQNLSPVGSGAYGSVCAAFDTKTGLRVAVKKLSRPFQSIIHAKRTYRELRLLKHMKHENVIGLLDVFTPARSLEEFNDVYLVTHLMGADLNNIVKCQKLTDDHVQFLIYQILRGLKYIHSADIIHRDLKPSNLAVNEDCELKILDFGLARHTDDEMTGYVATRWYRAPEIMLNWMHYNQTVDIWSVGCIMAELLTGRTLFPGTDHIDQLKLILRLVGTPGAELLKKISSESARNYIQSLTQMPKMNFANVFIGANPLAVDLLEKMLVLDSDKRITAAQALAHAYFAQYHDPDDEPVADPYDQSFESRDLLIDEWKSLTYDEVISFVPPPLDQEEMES
Source text: (§1) However, the Aurora A/B selectivity ratios derived from our in vitro and in vivo data can be compared to prioritize inhibitors.

[2] = target: 363 human kinases (including Aurora A/B/C) (Homo sapiens, UniProt P09769); conditions: FGR, [ATP] 50 µM; for remaining activity at 0.1 µM: 100 nM; for remaining activity at 0.1 µM / remaining activity at 0.5 µM: read-out: % Enzyme Activity (relative to DMSO controls)
363 human kinases (including Aurora A/B/C) (Homo sapiens, UniProt P09769), sequence (P09769 whole entry): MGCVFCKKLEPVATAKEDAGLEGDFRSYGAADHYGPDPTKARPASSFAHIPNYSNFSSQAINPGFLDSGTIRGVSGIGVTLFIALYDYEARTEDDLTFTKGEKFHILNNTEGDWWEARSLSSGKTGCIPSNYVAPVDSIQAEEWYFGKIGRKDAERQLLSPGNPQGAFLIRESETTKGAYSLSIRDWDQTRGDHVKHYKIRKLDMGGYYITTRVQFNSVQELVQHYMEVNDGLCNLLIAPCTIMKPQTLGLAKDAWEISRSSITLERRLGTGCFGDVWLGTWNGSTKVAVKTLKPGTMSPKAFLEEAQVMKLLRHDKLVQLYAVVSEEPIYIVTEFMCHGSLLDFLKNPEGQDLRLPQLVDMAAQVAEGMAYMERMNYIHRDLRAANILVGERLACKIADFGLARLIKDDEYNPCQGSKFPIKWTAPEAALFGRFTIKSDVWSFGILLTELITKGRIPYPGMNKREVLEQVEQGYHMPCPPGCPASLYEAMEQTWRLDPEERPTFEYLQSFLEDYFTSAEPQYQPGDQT
Source text: as §1

[3] = target: 363 human kinases (including Aurora A/B/C) (Homo sapiens, UniProt Q9NY57); conditions: STK32B/YANK2; for remaining activity at 0.1 µM: 100 nM; for remaining activity at 0.1 µM / remaining activity at 0.5 µM: read-out: % Enzyme Activity (relative to DMSO controls)
363 human kinases (including Aurora A/B/C) (Homo sapiens, UniProt Q9NY57), sequence (Q9NY57 whole entry): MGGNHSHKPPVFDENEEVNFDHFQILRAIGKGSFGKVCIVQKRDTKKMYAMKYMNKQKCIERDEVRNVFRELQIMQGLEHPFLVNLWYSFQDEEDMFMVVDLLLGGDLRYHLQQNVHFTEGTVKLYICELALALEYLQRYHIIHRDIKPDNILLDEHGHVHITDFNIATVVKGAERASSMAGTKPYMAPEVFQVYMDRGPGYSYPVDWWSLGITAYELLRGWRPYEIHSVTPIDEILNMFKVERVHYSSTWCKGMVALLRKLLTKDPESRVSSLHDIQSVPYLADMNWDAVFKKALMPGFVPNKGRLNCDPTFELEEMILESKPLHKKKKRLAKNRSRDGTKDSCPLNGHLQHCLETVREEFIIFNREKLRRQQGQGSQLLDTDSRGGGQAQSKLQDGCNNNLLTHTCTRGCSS
Source text: as §1

[4] = target: 363 human kinases (including Aurora A/B/C) (Homo sapiens, UniProt P05129); conditions: PKCg; for remaining activity at 0.1 µM: 100 nM; for remaining activity at 0.1 µM / remaining activity at 0.5 µM: read-out: % Enzyme Activity (relative to DMSO controls)
Source text: as §1

[5] = target: T1, 363 human kinases (including Aurora A/B/C) (Homo sapiens, UniProt Q96L34); conditions: MARK4; for remaining activity at 0.1 µM: 100 nM; for remaining activity at 0.1 µM / remaining activity at 0.5 µM: read-out: % Enzyme Activity (relative to DMSO controls)
T1 sequence (Q96L34 1-752): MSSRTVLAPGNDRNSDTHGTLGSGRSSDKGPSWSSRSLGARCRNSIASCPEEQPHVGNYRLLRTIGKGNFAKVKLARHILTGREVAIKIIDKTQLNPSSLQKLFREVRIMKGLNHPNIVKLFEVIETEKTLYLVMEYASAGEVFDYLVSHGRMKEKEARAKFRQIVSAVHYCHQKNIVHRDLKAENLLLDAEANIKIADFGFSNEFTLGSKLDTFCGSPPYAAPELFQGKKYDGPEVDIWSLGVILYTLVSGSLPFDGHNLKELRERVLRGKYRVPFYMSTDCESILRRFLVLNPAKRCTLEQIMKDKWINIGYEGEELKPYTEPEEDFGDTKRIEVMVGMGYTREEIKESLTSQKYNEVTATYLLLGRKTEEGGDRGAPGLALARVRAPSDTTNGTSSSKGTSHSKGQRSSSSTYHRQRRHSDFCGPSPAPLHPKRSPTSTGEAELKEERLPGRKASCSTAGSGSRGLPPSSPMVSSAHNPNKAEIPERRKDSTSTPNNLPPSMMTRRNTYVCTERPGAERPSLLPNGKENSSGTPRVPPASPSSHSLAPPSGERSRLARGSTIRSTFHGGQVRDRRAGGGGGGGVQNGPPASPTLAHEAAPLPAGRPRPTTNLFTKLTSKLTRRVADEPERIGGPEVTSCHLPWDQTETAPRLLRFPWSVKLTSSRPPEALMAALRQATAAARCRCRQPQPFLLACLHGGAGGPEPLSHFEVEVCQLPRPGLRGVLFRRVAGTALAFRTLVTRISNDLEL
Source text: as §1

[6] = target: 363 human kinases (including Aurora A/B/C) (Homo sapiens, UniProt P50750); conditions: [ATP] 10 µM; for remaining activity at 0.1 µM: 100 nM; for remaining activity at 0.1 µM / remaining activity at 0.5 µM: read-out: % Enzyme Activity (relative to DMSO controls); for remaining activity at 0.5 µM / % Enzyme Activity (relative to DMSO controls): 500 nM
363 human kinases (including Aurora A/B/C) (Homo sapiens, UniProt P50750), sequence (P50750 whole entry): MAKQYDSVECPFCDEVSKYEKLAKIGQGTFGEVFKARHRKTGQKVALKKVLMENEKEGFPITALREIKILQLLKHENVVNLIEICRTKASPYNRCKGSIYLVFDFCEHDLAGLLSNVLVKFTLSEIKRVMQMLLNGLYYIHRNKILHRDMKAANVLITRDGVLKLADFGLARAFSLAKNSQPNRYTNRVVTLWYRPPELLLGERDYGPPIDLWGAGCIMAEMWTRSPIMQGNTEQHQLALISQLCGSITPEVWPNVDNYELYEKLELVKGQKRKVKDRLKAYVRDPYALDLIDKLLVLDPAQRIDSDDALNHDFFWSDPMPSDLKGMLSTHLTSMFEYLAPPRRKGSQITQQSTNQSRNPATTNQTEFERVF
Source text: as §1

[7] = target: 363 human kinases (including Aurora A/B/C) (Homo sapiens, UniProt P48729); conditions: CK1a1, [ATP] 20 µM; for remaining activity at 0.1 µM: 100 nM; for remaining activity at 0.1 µM / remaining activity at 0.5 µM: read-out: % Enzyme Activity (relative to DMSO controls)
363 human kinases (including Aurora A/B/C) (Homo sapiens, UniProt P48729), sequence (P48729 whole entry): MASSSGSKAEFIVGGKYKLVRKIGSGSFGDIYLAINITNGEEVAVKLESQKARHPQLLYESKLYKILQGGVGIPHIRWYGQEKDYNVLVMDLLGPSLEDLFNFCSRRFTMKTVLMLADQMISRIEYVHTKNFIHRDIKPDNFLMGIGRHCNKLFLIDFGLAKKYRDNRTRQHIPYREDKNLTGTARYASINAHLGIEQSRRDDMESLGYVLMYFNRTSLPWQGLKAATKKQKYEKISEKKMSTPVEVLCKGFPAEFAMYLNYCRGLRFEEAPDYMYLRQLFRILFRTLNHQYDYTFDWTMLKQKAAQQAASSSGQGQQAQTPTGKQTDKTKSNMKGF
Source text: as §1

[8] = target: 363 human kinases (including Aurora A/B/C) (Homo sapiens, UniProt P49137); conditions: MAPKAPK2; for remaining activity at 0.1 µM: 100 nM; for remaining activity at 0.1 µM / remaining activity at 0.5 µM: read-out: % Enzyme Activity (relative to DMSO controls)
Source text: as §1

[9] = target: T2, 363 human kinases (including Aurora A/B/C) (Homo sapiens, UniProt Q99986); conditions: VRK1; for remaining activity at 0.1 µM: 100 nM; for remaining activity at 0.1 µM / remaining activity at 0.5 µM: read-out: % Enzyme Activity (relative to DMSO controls)
T2 sequence (Q99986 1-396): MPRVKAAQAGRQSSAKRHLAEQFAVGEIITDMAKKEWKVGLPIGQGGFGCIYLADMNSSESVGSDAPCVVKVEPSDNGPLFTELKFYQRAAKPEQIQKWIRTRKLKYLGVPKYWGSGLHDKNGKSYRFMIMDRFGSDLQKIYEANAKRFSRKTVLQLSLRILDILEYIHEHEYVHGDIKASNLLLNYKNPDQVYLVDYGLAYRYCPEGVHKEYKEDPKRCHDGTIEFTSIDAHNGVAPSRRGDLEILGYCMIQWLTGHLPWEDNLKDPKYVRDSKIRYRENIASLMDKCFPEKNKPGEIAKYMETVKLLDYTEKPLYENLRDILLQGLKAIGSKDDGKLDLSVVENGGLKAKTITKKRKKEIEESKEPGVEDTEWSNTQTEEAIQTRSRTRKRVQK
Source text: as §1

[10] = target: 363 human kinases (including Aurora A/B/C) (Homo sapiens, UniProt Q00526); conditions: CDK3/cyclin E, [ATP] 30 µM; for remaining activity at 0.1 µM: 100 nM; for remaining activity at 0.1 µM / remaining activity at 0.5 µM: read-out: % Enzyme Activity (relative to DMSO controls)
363 human kinases (including Aurora A/B/C) (Homo sapiens, UniProt Q00526), sequence (Q00526 whole entry): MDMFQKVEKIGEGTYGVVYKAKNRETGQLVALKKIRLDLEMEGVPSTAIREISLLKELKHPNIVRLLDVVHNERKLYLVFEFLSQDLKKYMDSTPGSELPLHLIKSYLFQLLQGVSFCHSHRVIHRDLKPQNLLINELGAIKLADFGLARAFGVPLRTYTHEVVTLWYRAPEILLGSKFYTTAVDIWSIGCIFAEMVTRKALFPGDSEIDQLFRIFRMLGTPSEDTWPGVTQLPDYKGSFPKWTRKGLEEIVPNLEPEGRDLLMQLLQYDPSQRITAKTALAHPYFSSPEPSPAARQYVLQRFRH
Source text: as §1

[11] = target: 363 human kinases (including Aurora A/B/C) (Homo sapiens, UniProt P54756); conditions: EPHA5, [ATP] 30 µM; for remaining activity at 0.1 µM: 100 nM; for remaining activity at 0.1 µM / remaining activity at 0.5 µM: read-out: % Enzyme Activity (relative to DMSO controls)
363 human kinases (including Aurora A/B/C) (Homo sapiens, UniProt P54756), sequence (P54756 25-1037): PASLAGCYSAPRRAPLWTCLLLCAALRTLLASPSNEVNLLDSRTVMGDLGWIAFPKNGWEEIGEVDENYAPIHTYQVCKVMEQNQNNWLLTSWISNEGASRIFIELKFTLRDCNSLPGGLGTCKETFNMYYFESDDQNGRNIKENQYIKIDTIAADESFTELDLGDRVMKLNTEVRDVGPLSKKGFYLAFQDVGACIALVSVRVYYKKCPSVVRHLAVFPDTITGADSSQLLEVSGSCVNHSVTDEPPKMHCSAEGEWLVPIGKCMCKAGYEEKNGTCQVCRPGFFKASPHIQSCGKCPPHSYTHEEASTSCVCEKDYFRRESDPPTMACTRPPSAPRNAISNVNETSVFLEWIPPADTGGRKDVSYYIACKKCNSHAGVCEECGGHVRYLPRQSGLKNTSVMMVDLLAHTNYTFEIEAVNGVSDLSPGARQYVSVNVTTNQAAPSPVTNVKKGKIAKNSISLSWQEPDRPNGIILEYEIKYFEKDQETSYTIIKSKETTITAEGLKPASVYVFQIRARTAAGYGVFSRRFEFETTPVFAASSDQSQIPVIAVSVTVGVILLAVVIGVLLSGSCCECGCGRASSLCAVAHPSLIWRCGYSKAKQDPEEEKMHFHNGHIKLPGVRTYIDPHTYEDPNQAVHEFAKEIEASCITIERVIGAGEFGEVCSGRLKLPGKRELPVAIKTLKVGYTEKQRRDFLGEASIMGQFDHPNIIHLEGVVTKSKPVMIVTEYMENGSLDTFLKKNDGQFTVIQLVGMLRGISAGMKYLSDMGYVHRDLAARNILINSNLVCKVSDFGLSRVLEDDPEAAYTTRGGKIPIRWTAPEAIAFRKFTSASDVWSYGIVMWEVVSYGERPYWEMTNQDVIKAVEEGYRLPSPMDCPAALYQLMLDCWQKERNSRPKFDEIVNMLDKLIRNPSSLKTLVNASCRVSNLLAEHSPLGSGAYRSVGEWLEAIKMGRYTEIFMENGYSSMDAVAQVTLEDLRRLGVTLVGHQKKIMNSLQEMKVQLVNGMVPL
Source text: as §1

[12] = target: 363 human kinases (including Aurora A/B/C) (Homo sapiens, UniProt Q16816); conditions: PHKg1; for remaining activity at 0.1 µM: 100 nM; for remaining activity at 0.1 µM / remaining activity at 0.5 µM: read-out: % Enzyme Activity (relative to DMSO controls)
363 human kinases (including Aurora A/B/C) (Homo sapiens, UniProt Q16816), sequence (Q16816 whole entry): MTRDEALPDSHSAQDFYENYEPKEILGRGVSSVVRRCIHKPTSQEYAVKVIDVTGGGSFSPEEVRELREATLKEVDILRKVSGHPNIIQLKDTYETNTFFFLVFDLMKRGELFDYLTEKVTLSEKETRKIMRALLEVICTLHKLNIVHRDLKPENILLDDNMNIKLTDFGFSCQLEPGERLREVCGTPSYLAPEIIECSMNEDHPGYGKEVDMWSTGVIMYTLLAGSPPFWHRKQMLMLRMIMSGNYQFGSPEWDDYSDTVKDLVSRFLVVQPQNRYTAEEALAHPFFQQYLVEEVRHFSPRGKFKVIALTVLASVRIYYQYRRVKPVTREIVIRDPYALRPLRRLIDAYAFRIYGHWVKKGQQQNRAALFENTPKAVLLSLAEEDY
Source text: as §1

[13] = target: 363 human kinases (including Aurora A/B/C) (Homo sapiens, UniProt Q02763); conditions: TIE2/TEK; for remaining activity at 0.1 µM: 100 nM; for remaining activity at 0.1 µM / remaining activity at 0.5 µM: read-out: % Enzyme Activity (relative to DMSO controls)
Source text: as §1

[14] = target: 363 human kinases (including Aurora A/B/C) (Homo sapiens, UniProt Q9HBH9); conditions: MNK2; for remaining activity at 0.1 µM: 100 nM; for remaining activity at 0.1 µM / remaining activity at 0.5 µM: read-out: % Enzyme Activity (relative to DMSO controls)
363 human kinases (including Aurora A/B/C) (Homo sapiens, UniProt Q9HBH9), sequence (Q9HBH9 whole entry): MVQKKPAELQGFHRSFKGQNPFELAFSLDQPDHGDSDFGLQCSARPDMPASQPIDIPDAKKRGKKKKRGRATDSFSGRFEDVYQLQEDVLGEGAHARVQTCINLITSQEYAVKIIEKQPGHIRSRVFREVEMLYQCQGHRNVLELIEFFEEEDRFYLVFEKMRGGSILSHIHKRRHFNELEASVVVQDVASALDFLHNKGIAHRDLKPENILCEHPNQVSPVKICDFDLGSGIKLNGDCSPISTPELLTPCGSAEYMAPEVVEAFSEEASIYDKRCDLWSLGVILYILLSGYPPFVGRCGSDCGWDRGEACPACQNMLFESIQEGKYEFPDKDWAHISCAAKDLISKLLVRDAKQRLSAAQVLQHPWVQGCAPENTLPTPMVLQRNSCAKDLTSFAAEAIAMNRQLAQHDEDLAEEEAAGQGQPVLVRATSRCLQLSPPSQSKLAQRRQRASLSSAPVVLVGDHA
Source text: as §1

SMILES: CCn1cc(-c2ccnc3[nH]c(-c4cccc(CN(C)C)c4)cc23)c(-c2ccc(NC(=O)N(C)C)cc2)n1 [GSK1070916]
- remaining activity at 0.1 µM [1]: 93.6%
- remaining activity at 0.1 µM [2]: 97.8%
- remaining activity at 0.1 µM [3]: 93.6%
- remaining activity at 0.1 µM [4]: 82.3%
- remaining activity at 0.1 µM [5]: 111%
- remaining activity at 0.1 µM ([6]; CDK9/cyclin K): 102%
- remaining activity at 0.1 µM ([6]; CDK9/cyclin T1): 91.5%
- remaining activity at 0.1 µM [7]: 103%
- remaining activity at 0.1 µM [8]: 95.6%
- remaining activity at 0.1 µM [9]: 89.3%
- remaining activity at 0.1 µM [10]: 83.7%
- remaining activity at 0.1 µM [11]: 101%
- remaining activity at 0.1 µM [12]: 95.6%
- remaining activity at 0.1 µM [13]: 39.1%
- remaining activity at 0.1 µM [14]: 96.9%

SMILES: O=C(O)[C@]1(Cc2cccc(Nc3nccs3)n2)CC[C@@H](Oc2cccc(Cl)c2F)CC1 [MK-5108]
- remaining activity at 0.1 µM [1]: 95.2%
- remaining activity at 0.5 µM ([1]; 500 nM): 101%
- remaining activity at 0.1 µM [2]: 22.9%
- remaining activity at 0.5 µM ([2]; 500 nM): 6.36%
- remaining activity at 0.1 µM [3]: 95.8%
- remaining activity at 0.5 µM ([3]; 500 nM): 95.7%
- remaining activity at 0.1 µM [4]: 93.7%
- remaining activity at 0.5 µM ([4]; 500 nM): 63%
- remaining activity at 0.1 µM [5]: 106%
- remaining activity at 0.5 µM ([5]; 500 nM): 101%
- remaining activity at 0.1 µM ([6]; CDK9/cyclin K): 94%
- remaining activity at 0.5 µM ([6]; CDK9/cyclin K): 106%
- remaining activity at 0.1 µM ([6]; CDK9/cyclin T1): 124%
- remaining activity at 0.5 µM ([6]; CDK9/cyclin T1): 115%
- remaining activity at 0.1 µM [7]: 89%
- remaining activity at 0.5 µM ([7]; 500 nM): 101%
- remaining activity at 0.1 µM [8]: 102%
- remaining activity at 0.5 µM ([8]; 500 nM): 100%
- remaining activity at 0.1 µM [9]: 86.9%
- remaining activity at 0.5 µM ([9]; 500 nM): 94%
- remaining activity at 0.1 µM [10]: 88.3%
- remaining activity at 0.5 µM ([10]; 500 nM): 80.5%
- remaining activity at 0.1 µM [11]: 48.6%
- remaining activity at 0.5 µM ([11]; 500 nM): 24.4%
- remaining activity at 0.1 µM [12]: 99.1%
- remaining activity at 0.5 µM ([12]; 500 nM): 82%
- remaining activity at 0.1 µM [13]: 37.9%
- remaining activity at 0.5 µM ([13]; 500 nM): 9.27%
- remaining activity at 0.1 µM [14]: 105%
- remaining activity at 0.5 µM ([14]; 500 nM): 95%

SMILES: O=C(c1cccc(Cl)c1F)N1CCN(Cc2cccc(Nc3nccs3)n2)CC1 [MK-8745]
- % Enzyme Activity (relative to DMSO controls) ([1]; 500 nM): 95.14%
- remaining activity at 0.5 µM ([1]; 500 nM): 95.3%
- % Enzyme Activity (relative to DMSO controls) ([2]; 500 nM): 35.97%
- remaining activity at 0.5 µM ([2]; 500 nM): 36.3%
- % Enzyme Activity (relative to DMSO controls) ([3]; 500 nM): 95.67%
- remaining activity at 0.5 µM ([3]; 500 nM): 97.9%
- % Enzyme Activity (relative to DMSO controls) ([4]; 500 nM): 90.37%
- remaining activity at 0.5 µM ([4]; 500 nM): 91.9%
- % Enzyme Activity (relative to DMSO controls) ([5]; 500 nM): 102.33%
- remaining activity at 0.5 µM ([5]; 500 nM): 105%
- % Enzyme Activity (relative to DMSO controls) ([6]; CDK9/cyclin K): 108.88%
- remaining activity at 0.5 µM ([6]; CDK9/cyclin K): 109%
- % Enzyme Activity (relative to DMSO controls) ([6]; CDK9/cyclin T1): 190.89%
- remaining activity at 0.5 µM ([6]; CDK9/cyclin T1): 198%
- % Enzyme Activity (relative to DMSO controls) ([7]; 500 nM): 99.17%
- remaining activity at 0.5 µM ([7]; 500 nM): 99.8%
- % Enzyme Activity (relative to DMSO controls) ([8]; 500 nM): 92.28%
- remaining activity at 0.5 µM ([8]; 500 nM): 92.9%
- % Enzyme Activity (relative to DMSO controls) ([9]; 500 nM): 94.39%
- remaining activity at 0.5 µM ([9]; 500 nM): 97.3%
- % Enzyme Activity (relative to DMSO controls) ([10]; 500 nM): 77.67%
- remaining activity at 0.5 µM ([10]; 500 nM): 78.6%
- % Enzyme Activity (relative to DMSO controls) ([11]; 500 nM): 84.08%
- remaining activity at 0.5 µM ([11]; 500 nM): 84.2%
- % Enzyme Activity (relative to DMSO controls) ([12]; 500 nM): 90.90%
- remaining activity at 0.5 µM ([12]; 500 nM): 93.3%
- % Enzyme Activity (relative to DMSO controls) ([13]; 500 nM): 96.47%
- remaining activity at 0.5 µM ([13]; 500 nM): 98.2%
- % Enzyme Activity (relative to DMSO controls) ([14]; 500 nM): 97.70%
- remaining activity at 0.5 µM ([14]; 500 nM): 97.9%
